How the values were obtained:
Toll-like receptor 3 = molecular target: T1, Toll-like receptor 3 (Homo sapiens, UniProt O15455); assay: Antagonist activity at […] stimulated human TRL3 overexpressed in HEK293 cells assessed as inhibition of NF kappa B/Ap-1 activation preincubated with compound for 30 mins followed by […] stimulation measured after 22 hrs by SEAP reporter assay; assay type: cell-based
T1 sequence (O15455 whole entry): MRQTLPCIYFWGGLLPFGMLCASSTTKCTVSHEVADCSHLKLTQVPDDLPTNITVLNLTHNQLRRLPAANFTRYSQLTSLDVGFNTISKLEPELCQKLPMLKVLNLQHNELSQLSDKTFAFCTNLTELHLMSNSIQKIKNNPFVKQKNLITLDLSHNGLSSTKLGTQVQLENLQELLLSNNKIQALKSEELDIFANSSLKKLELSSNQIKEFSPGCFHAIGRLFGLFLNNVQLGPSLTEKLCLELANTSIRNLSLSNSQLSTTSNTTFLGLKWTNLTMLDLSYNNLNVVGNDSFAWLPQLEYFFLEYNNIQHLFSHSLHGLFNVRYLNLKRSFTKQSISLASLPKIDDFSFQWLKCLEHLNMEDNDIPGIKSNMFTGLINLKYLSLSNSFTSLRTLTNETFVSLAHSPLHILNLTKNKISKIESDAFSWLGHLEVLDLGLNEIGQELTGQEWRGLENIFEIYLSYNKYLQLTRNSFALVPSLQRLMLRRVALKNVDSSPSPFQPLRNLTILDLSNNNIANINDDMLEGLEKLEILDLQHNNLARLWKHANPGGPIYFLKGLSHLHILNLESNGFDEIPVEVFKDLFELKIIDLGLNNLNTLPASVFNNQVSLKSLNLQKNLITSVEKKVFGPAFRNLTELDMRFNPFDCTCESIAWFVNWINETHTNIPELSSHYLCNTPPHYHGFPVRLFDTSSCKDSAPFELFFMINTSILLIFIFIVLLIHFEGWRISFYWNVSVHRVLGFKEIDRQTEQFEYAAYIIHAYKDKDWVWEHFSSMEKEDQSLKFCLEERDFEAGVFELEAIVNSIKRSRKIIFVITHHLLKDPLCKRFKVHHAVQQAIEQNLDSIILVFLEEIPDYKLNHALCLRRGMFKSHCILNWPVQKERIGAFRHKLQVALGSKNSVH

Toll-like receptor 9 = molecular target: T2, Toll-like receptor 9 (Mus musculus, UniProt Q9EQU3); assay: Antagonist activity at ODN-2216 stimulated TLR9 in mouse whole blood assessed as inhibition of IL-6 production by ELISA analysis; assay type: tissue-based
T2 sequence (Q9EQU3 whole entry): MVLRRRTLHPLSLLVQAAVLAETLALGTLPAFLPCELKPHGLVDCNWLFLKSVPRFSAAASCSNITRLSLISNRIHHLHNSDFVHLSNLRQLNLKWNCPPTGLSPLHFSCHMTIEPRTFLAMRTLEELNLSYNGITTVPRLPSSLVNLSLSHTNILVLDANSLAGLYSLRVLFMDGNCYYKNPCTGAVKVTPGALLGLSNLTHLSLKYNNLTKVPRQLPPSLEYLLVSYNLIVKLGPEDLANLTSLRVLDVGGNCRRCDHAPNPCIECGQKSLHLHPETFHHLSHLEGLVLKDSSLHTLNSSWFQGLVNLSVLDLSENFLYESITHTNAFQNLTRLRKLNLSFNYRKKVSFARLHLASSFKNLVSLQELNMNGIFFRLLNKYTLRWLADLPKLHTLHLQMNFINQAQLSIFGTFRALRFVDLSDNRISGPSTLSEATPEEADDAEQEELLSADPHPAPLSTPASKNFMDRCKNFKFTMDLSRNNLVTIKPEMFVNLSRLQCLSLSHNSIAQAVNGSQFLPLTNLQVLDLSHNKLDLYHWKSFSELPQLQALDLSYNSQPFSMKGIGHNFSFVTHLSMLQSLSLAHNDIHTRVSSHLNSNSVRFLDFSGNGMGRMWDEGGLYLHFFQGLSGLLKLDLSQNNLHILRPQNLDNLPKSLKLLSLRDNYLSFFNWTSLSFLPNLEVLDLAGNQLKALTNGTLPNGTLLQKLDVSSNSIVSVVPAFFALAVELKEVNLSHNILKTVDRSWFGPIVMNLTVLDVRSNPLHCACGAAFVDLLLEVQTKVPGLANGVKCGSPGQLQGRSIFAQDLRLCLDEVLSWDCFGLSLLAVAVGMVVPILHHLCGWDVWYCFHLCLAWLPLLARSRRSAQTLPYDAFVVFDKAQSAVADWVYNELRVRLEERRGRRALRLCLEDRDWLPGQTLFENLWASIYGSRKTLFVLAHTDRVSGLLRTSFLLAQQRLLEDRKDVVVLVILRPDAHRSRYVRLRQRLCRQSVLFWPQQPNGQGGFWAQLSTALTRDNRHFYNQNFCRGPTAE

[1] = Plasma protein binding in mouse assessed as free fraction; assay type: ADME, cell-free
[2] = Drug concentration in mouse blood at 15 mg/kg, po measured at 24 hrs; assay type: ADME, organism-based; conditions: read-out: Ct
[3] = AUClast in mouse blood at 5 mg/kg, iv; assay type: ADME, organism-based; design: time 0 - last, dose 5 mg/kg, route iv
[4] = In vivo antagonist activity at TRL7 in C57BL/6 mouse assessed as inhibition of gardiquimod stimulated IL-6 production at 0.03 mg/kg,po for 30 minutes and followed by gardiquimod addition measured after 90 mins by ELISA analysis relative to control; assay type: functional; design: scale not given: the % may be the effect or the level left; conditions: time 120 min, 2 h
[5] = In vivo antagonist activity at TRL7 in C57BL/6 mouse assessed as inhibition of gardiquimod stimulated IL-6 production at 0.05 mg/kg,po for 30 minutes and followed by gardiquimod addition measured after 90 mins by ELISA analysis relative to control; assay type: functional; design: scale not given: the % may be the effect or the level left; conditions: time 120 min, 2 h
[6] = In vivo antagonist activity at TRL9 in C57BL/6 mouse assessed as inhibition of ODN1585 stimulated IL-6 production at 1 mg/kg,po for 30 minutes and followed by ODN1585 addition measured after 90 mins by ELISA analysis relative to control; assay type: functional; design: scale not given: the % may be the effect or the level left; conditions: time 120 min, 2 h
[7] = In vivo antagonist activity at TRL9 in C57BL/6 mouse assessed as inhibition of ODN1585 stimulated IL-6 production at 3 mg/kg,po for 30 minutes and followed by ODN1585 addition measured after 90 mins by ELISA analysis relative to control; assay type: functional; design: scale not given: the % may be the effect or the level left; conditions: time 120 min, 2 h
[8] = In vivo antagonist activity at TRL9 in C57BL/6 mouse assessed as inhibition of ODN1585 stimulated IL-6 production at 10 mg/kg,po for 30 minutes and followed by ODN1585 addition measured after 90 mins by ELISA analysis relative to control; assay type: functional; design: scale not given: the % may be the effect or the level left; conditions: time 120 min, 2 h
Mus musculus [9] = assay: Anti-inflammatory activity against MRL/Ipr Systemic lupus erythematosus mouse model assessed as inhibition of proteinuria at 0.1 mg/kg, po administered for 8 weeks and measured 24 hrs post final dose relative to control; assay type: functional; design: scale not given: the % may be the effect or the level left; conditions: time 1368 hrs
Mus musculus [10] = assay: Anti-inflammatory activity against MRL/Ipr Systemic lupus erythematosus mouse model assessed as inhibition of anti-dsDNA Ab titer at 20 mg/kg, po administered for 8 weeks and measured 24 hrs post final dose relative to control; assay type: functional; design: scale not given: the % may be the effect or the level left; conditions: time 1368 hrs
[11] = Toxicity in MRL/Ipr Systemic lupus erythematosus mouse model assessed as drug tolerability at 0.1 to 20 mg/kg, po administered for 8 weeks and measured 24 hrs post final dose; assay type: organism-based; conditions: in vivo, 1368 h, dose 0.1-20 mg/kg

IC50 (Toll-like receptor 3): > 10 µM
IC50 (Toll-like receptor 9): > 5 µM
fraction unbound [1]: 0.05
concentration at 24 h [2]: 22 nM
AUC(0-t) [3]: 1.58 µM·h
Compound: Cc1cc(-c2[nH]c3ccc(C4CCNCC4)cc3c2C(C)C)cc(C)n1
Activity [4]: 28%
Activity [5]: 66%
Activity [6]: 16%
Activity [7]: 29%
Activity [8]: 33%
Activity (Mus musculus [9]): 69%
Activity (Mus musculus [10]): 53%
Activity [11]: Non-Toxic

— ChEMBL document CHEMBL5131534, “Identification of 2-Pyridinylindole-Based Dual Antagonists of Toll-like Receptors 7 and 8 (TLR7/8)” (ACS Med Chem Lett, 2022)
